Structures can show the parent of a compound that is named as a salt.
Columns and labels:
Nitrabacter = assay: Nitrite in ammonium amended field soil incubated at 38° C.; settings: soil 38° C.; for Nitrite, reported as nitrogen: 0.50 ppm, 200 ppm N
Procedure: Determination of Nitrification Inhibition of Soil amended with 200 ppm of nitrogen as ammonium sulfate and 0.5 ppm of Nitrapyrin or 0.5 ppm of Maduramicin, monoammonium salt.
Soil samples prepared as described in Example 1 above are incubated at 38° C. for 20 weeks. Samples are taken at intervals during the 20 week period, extracted with 2M KCl (10:1 v/w), and assayed for ammonium nitrite and nitrate by standard steam distillation methods.

Nitrosomonas spp. = assay: Nitrification of ammonium in soil incubated at 25° C. (ammonium recovery, nitrate accumulation); settings: soil 25° C.; for Concentration of nitrate nitrogen / Recovery of Ammonium Nitrogen: 200 ppm N; for Effectiveness as nitrification inhibitor, in words: 20 weeks study
Method in brief: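 Ammonium recovery and nitrate accumulation read out after KCl extraction (2M, 1 h shaking) and steam distillation of ammonium, nitrite and nitrate. Soil was amended with 200 ppm N as ammonium sulfate and 0.10–0.50 ppm inhibitor, held at 50% water saturation at 25 °C, sampled 0–20 weeks in duplicate.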

CO[C@@H]1[C@@H](OC)[C@H](C)[C@@](O)(CC(=O)O)O[C@H]1[C@H](C)[C@H]1O[C@@]2(CC[C@@](C)([C@H]3CC[C@@](C)([C@@H]4O[C@@H]([C@H]5O[C@](C)(O)[C@H](C)C[C@@H]5C)C[C@@H]4O[C@@H]4C[C@H](OC)[C@@H](OC)[C@H](C)O4)O3)O2)C[C@H](O)[C@H]1C [Maduramicin monoammonium salt, Maduramicin]
Activity against Nitrabacter, in words (Nitrabacter; 0.5 ppm): no activity | Nitrite, reported as nitrogen (Nitrabacter; week 0): 9 ppm | Nitrite, reported as nitrogen (Nitrabacter; week 1): 8 ppm | Nitrite, reported as nitrogen (Nitrabacter; week 2): 4 ppm | Nitrite, reported as nitrogen (Nitrabacter; week 4): 3 ppm | Nitrite, reported as nitrogen (Nitrabacter; week 7): -5 ppm | Nitrite, reported as nitrogen (Nitrabacter; week 9): 9 ppm | Nitrite, reported as nitrogen (Nitrabacter; week 12): 6 ppm | Nitrite, reported as nitrogen (Nitrabacter; week 16): 19 ppm | Nitrite, reported as nitrogen (Nitrabacter; week 20): 37 ppm | Effectiveness compared with 0.5 ppm nitrapyrin, in words (Nitrosomonas spp.; 0.10 ppm): not as effective as the 0.5 ppm rate of nitrapyrin | Concentration of nitrate nitrogen (Nitrosomonas spp.; 0.10 ppm, week 0): 18 PPM | Recovery of Ammonium Nitrogen (Nitrosomonas spp.; 0.10 ppm, week 0): 195 PPM | Concentration of nitrate nitrogen (Nitrosomonas spp.; 0.10 ppm, week 1): 20 PPM | Recovery of Ammonium Nitrogen (Nitrosomonas spp.; 0.10 ppm, week 1): 168 PPM | Concentration of nitrate nitrogen (Nitrosomonas spp.; 0.10 ppm, week 2): 19 PPM | Recovery of Ammonium Nitrogen (Nitrosomonas spp.; 0.10 ppm, week 2): 178 PPM | Concentration of nitrate nitrogen (Nitrosomonas spp.; 0.10 ppm, week 4): 24 PPM | Recovery of Ammonium Nitrogen (Nitrosomonas spp.; 0.10 ppm, week 4): 176 PPM | Concentration of nitrate nitrogen (Nitrosomonas spp.; 0.10 ppm, week 7): 75 PPM | Recovery of Ammonium Nitrogen (Nitrosomonas spp.; 0.10 ppm, week 7): 125 PPM | Concentration of nitrate nitrogen (Nitrosomonas spp.; 0.10 ppm, week 9): 59 PPM | Recovery of Ammonium Nitrogen (Nitrosomonas spp.; 0.10 ppm, week 9): 110 PPM | Concentration of nitrate nitrogen (Nitrosomonas spp.; 0.10 ppm, week 12): 152 PPM | Recovery of Ammonium Nitrogen (Nitrosomonas spp.; 0.10 ppm, week 12): 55 PPM | Concentration of nitrate nitrogen (Nitrosomonas spp.; 0.10 ppm, week 16): 153 PPM | Recovery of Ammonium Nitrogen (Nitrosomonas spp.; 0.10 ppm, week 16): 67 PPM | Concentration of nitrate nitrogen (Nitrosomonas spp.; 0.10 ppm, week 20): 134 PPM | Recovery of Ammonium Nitrogen (Nitrosomonas spp.; 0.10 ppm, week 20): 39 PPM | Specific inhibition of nitrification through activity against Nitrosomonas spp., in words (Nitrosomonas spp.; 0.1 to 0.5 ppm): appear to specifically inhibit nitrification through activity against Nitrosomonas spp. | Concentration of nitrate nitrogen (Nitrosomonas spp.; 0.25 ppm, week 0): 19 PPM | Recovery of Ammonium Nitrogen (Nitrosomonas spp.; 0.25 ppm, week 0): 194 PPM | Concentration of nitrate nitrogen (Nitrosomonas spp.; 0.25 ppm, week 1): 18 PPM | Recovery of Ammonium Nitrogen (Nitrosomonas spp.; 0.25 ppm, week 1): 162 PPM | Concentration of nitrate nitrogen (Nitrosomonas spp.; 0.25 ppm, week 2): 19 PPM | Recovery of Ammonium Nitrogen (Nitrosomonas spp.; 0.25 ppm, week 2): 164 PPM | Concentration of nitrate nitrogen (Nitrosomonas spp.; 0.25 ppm, week 4): 19 PPM | Recovery of Ammonium Nitrogen (Nitrosomonas spp.; 0.25 ppm, week 4): 187 PPM | Concentration of nitrate nitrogen (Nitrosomonas spp.; 0.25 ppm, week 7): 21 PPM | Recovery of Ammonium Nitrogen (Nitrosomonas spp.; 0.25 ppm, week 7): 198 PPM | Concentration of nitrate nitrogen (Nitrosomonas spp.; 0.25 ppm, week 9): 25 PPM | Recovery of Ammonium Nitrogen (Nitrosomonas spp.; 0.25 ppm, week 9): 185 PPM | Concentration of nitrate nitrogen (Nitrosomonas spp.; 0.25 ppm, week 12): 23 PPM | Recovery of Ammonium Nitrogen (Nitrosomonas spp.; 0.25 ppm, week 12): 192 PPM | Concentration of nitrate nitrogen (Nitrosomonas spp.; 0.25 ppm, week 16): 64 PPM | Recovery of Ammonium Nitrogen (Nitrosomonas spp.; 0.25 ppm, week 16): 164 PPM | Concentration of nitrate nitrogen (Nitrosomonas spp.; 0.25 ppm, week 20): 85 PPM | Recovery of Ammonium Nitrogen (Nitrosomonas spp.; 0.25 ppm, week 20): 102 PPM | Time through which nitrification is delayed or inhibited (Nitrosomonas spp.; 0.5 ppm): ≥ 20 weeks | Concentration of nitrate nitrogen (Nitrosomonas spp.; 0.50 ppm, week 0): 18 PPM | Recovery of Ammonium Nitrogen (Nitrosomonas spp.; 0.50 ppm, week 0): 194 PPM | Concentration of nitrate nitrogen (Nitrosomonas spp.; 0.50 ppm, week 1): 20 PPM | Recovery of Ammonium Nitrogen (Nitrosomonas spp.; 0.50 ppm, week 1): 162 PPM | Concentration of nitrate nitrogen (Nitrosomonas spp.; 0.50 ppm, week 2): 18 PPM | Recovery of Ammonium Nitrogen (Nitrosomonas spp.; 0.50 ppm, week 2): 166 PPM | Concentration of nitrate nitrogen (Nitrosomonas spp.; 0.50 ppm, week 4): 21 PPM | Recovery of Ammonium Nitrogen (Nitrosomonas spp.; 0.50 ppm, week 4): 170 PPM | Concentration of nitrate nitrogen (Nitrosomonas spp.; 0.50 ppm, week 7): 21 PPM | Recovery of Ammonium Nitrogen (Nitrosomonas spp.; 0.50 ppm, week 7): 194 PPM | Concentration of nitrate nitrogen (Nitrosomonas spp.; 0.50 ppm, week 9): 25 PPM | Recovery of Ammonium Nitrogen (Nitrosomonas spp.; 0.50 ppm, week 9): 193 PPM | Concentration of nitrate nitrogen (Nitrosomonas spp.; 0.50 ppm, week 12): 18 PPM | Recovery of Ammonium Nitrogen (Nitrosomonas spp.; 0.50 ppm, week 12): 189 PPM | Concentration of nitrate nitrogen (Nitrosomonas spp.; 0.50 ppm, week 16): 28 PPM | Recovery of Ammonium Nitrogen (Nitrosomonas spp.; 0.50 ppm, week 16): 209 PPM | Concentration of nitrate nitrogen (Nitrosomonas spp.; 0.50 ppm, week 20): 44 PPM | Recovery of Ammonium Nitrogen (Nitrosomonas spp.; 0.50 ppm, week 20): 175 PPM | Effectiveness as nitrification inhibitor, in words (Nitrosomonas spp.; X-14868A monammonium salt): most effective nitrification inhibitor | Effectiveness as nitrification inhibitor, in words (Nitrosomonas spp.; X-14868 monoammonium salt): considerably more effective than nitrapyrin

From patent US4746349A, “Method and compositions for suppressing the nitrification of ammonium in plant growth medium” (American Cyanamid Company, priority 1986, dated 1988)
